Data taken from paper PMC2685009, “Identification and Characterization of Inhibitors of Human Apurinic/apyrimidinic Endonuclease APE1” (PLoS ONE, 2009).

What was measured:
[1] = design: method as in PMID 7019686; conditions: cited from earlier work
APE1 [2] = biological target: T1, APE1 (Homo sapiens, UniProt P27695); assay: Radiotracer (32P, gel-based) incision assay; type: biochemical; conditions: range of inhibitor concentrations, data not shown; read-out: approximate IC50 in radiotracer assay
T1 construct: made in house

E. coli EndoIV = biological target: T2, E. coli EndoIV (Escherichia coli, UniProt P0A6C1); assay: E. coli Endonuclease IV (EndoIV) profiling assay; type: biochemical
T2 construct: made in house
Protocol: EndoIV enzyme and substrate (same as that used with APE1) optimization tests were initially performed at a 40 µL final volume in a 384-well format. Reaction concentrations of 2 nM EndoIV and 50 nM DNA substrate were selected for subsequent experiments. For running the assay in 1536-well format, the same protocol as described for APE1 above was followed.

[3] = biological target: unlabeled double-stranded DNA substrate; assay: ThO dye-displacement assay (DNA binding); conditions: 50 nM DNA, 250 nM ThO
HeLa cells = assay: AP site measurement in chromosomal DNA; type: cell-based, human
Protocol: HeLa cells were treated as above, except only at 5 µM inhibitor where indicated. Following exposure, chromosomal DNA was isolated and steady-state AP site levels were measured using the DNA Damage Quantification Kit from Dojindo Molecular Technologies, Inc. (Gaithersburg, MD) as previously described.

[4] = test system: AP site cleavage activity of HeLa whole cell extract; assay: Whole cell extract AP endonuclease activity assay (HeLa); type: biochemical, human; conditions: inhibitor at 100 µM
Protocol: (§1) The radiotracer assay was performed essentially as described. In brief, prioritized candidate inhibitor compounds from the qHTS assay were incubated at various concentrations (100 µM data shown) with APE1 (100 pg) at room temperature for 15 min in 25 mM Tris pH 7.5, 25 mM NaCl, 1 mM MgCl2, 1 mM DTT and 0.01% Tween-20. At that time, 0.5 pmol ^32P-radiolabeled THF-containing 34 mer double-stranded DNA substrate was added. Incision reactions were then carried out immediately at 37°C for 10 min in a final volume of 10 µL. After the addition of an equal volume of stop buffer (0.05% bromophenol blue and xylene cynol, 20 mM EDTA, 95% formamide), the radiolabeled substrate and product were separated on a standard polyacrylamide denaturing gel and quantified by phosphorimager analysis.
(§2) HEK 293T or HeLa cells – maintained in DMEM with 10% fetal bovine serum and 1% Penicillin-Streptomycin – were harvested, washed with 1× PBS, re-suspended in cold 222 mM KCl, incubated on ice for 30 min, and clarified by centrifugation at 12,000×g for 15 min at 4°C [23]. The supernatant (whole cell extract) was retained, the protein concentration determined using the Bio-Rad Bradford reagent, and aliquots were stored at −80°C. AP endonuclease activity assays were performed with or without candidate inhibitor compounds as described above, except 60 ng HEK 293T or 80 ng of HeLa whole cell extract was used.

APE1 [5] = biological target: T1, APE1; assay: qHTS fluorogenic AP site incision assay (TAMRA/BHQ-2 red substrate, 1536-well); type: biochemical; conditions: 50 nM substrate, 0.75 nM APE1; read-out: qHTS IC50 (primary screen, APE1)
Protocol: Recombinant human APE1 and E. coli EndoIV were purified as previously described. Deoxyoligonucleotides containing a tetrahydrofuran (THF) AP site analog, carboxytetramethyl rhodamine (TAMRA), or Black Hole Quencher-2 (BHQ-2), as appropriate (see Figure 1), were purchased from Biosearch Technologies, Inc., (Novato, CA). To create double-stranded DNA substrates, equal volumes of 200 µM solutions of the respective strands in reaction buffer were mixed and incubated at 95°C for 5 min. The annealing mixture was allowed to cool gradually to room temperature. Annealing and assay experiments were performed in the following buffer: 50 mM Tris pH 7.5, 25 mM NaCl, 2 mM MgCl2, 1 mM DTT, 0.01% Tween-20.
Initial optimizations were carried out in 384-well format at a 40 µL total reaction volume. Briefly, 30 µL of APE1 were pipetted into the plate and incubated at room temperature for 10 min; subsequently, 10 µL of substrate were added to start the reaction. The final assay concentrations of the enzyme and substrate were 0.75 nM and 50 nM, respectively. Kinetic fluorescence data were collected on a ViewLux high-throughput CCD imager (Perkin Elmer, Waltham, MA) equipped with standard FITC (excitation filter 480 nm and emission filter 530 nm) or BODIPY (excitation filter 525 nm and emission filter 598 nm) optics.
Three µl of reagents (buffer in columns 3 and 4 as negative control and APE1 in columns 1, 2, 5–48) were dispensed into a 1536-well plate. Compounds (DMSO solutions) and control (DMSO only) (23 nL) were transferred via Kalypsys pintool equipped with 1536-pin array. The plate was incubated for 15 min at room temperature, and then 1 µL of substrate (50 nM final concentration) was added to start the reaction. Library plates were screened from the lowest to highest concentration.
Screening data were corrected and normalized, and concentration–effect relationships were derived by using in-house developed, publicly available algorithms (http://www.ncgc.nih.gov/pub/openhts/curvefit/). Percent activity was computed after normalization against the uninhibited, or neutral, control (64 wells, entire columns 1 and 2) and the no-enzyme, or 100% inhibited, control (64 wells, entire columns 3 and 4), respectively. A four parameter Hill equation was fitted to the concentration-response data by minimizing the residual error between the modeled and observed responses.

[6] = test system: AP site cleavage activity of HEK 293T whole cell extract; assay: Whole cell extract AP endonuclease activity assay (HEK 293T); type: biochemical, human; conditions: inhibitor at 100 µM
Protocol: as §1, §2

T1 sequence (P27695 whole entry): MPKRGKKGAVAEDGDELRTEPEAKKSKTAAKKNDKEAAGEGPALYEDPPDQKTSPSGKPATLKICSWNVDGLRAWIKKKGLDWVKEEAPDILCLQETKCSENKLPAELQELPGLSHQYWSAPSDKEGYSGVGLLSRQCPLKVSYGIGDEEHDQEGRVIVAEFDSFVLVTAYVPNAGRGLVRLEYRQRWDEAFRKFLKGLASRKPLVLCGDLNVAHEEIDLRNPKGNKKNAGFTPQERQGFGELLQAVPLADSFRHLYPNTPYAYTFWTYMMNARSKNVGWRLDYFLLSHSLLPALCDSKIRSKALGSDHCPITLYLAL

Structure (SMILES): O=c1c(O)c(-c2cc(O)c(O)c(O)c2)oc2cc(O)cc(O)c12 [myricetin]
- mutagenesis in the Ames Test [1]: promote mutagenesis
- IC50 (APE1 [2]): < 500 nM
- activity against EndoIV compared with APE1 (in words) (E. coli EndoIV): completely inactive or weakly active
- IC50 (E. coli EndoIV; 2 nM EndoIV, 50 nM substrate, read-out: Endo IV IC50 (E. coli EndoIV profiling)): > 57000 nM
- IC50 [3]: 3500 nM
- AP site damage, inhibitor alone (HeLa cells; 5 µM inhibitor alone, relative to control cells): increased AP site damage relative to the control cells
- AP site damage, inhibitor plus MMS (HeLa cells; 5 µM inhibitor plus MMS): potentiated the genotoxic potential of MMS
- inhibition of total AP site cleavage activity [4]: ≥ 80%
- IC50 (APE1 [5]): 320 nM
- inhibition of total AP site cleavage activity [6]: ≥ 80%
